The values that follow come from patent publication US9617281B2, “Imidazo[2,1-b]thiazole derivatives, their preparation and use as medicaments” (LABORATORIOS DEL DR. ESTEVE S.A., priority 2012, dated 2017).

Counter-ions that a name gives are not always drawn.

Chain of σ1-receptor (Q60492 whole entry): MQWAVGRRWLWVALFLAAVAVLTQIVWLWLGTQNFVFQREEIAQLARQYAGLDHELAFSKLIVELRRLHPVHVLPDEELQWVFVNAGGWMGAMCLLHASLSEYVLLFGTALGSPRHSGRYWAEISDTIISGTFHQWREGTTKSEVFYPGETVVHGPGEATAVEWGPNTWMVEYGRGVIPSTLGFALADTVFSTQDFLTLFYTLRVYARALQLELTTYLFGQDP

The assay deals with σ1-receptor (Cavia porcellus (Guinea pig), UniProt Q60492). Kind of assay: σ1-receptor binding assay with [3H]-(+)-pentazocine in guinea pig brain membranes. The settings on record: radioligand [3H]-(+)-pentazocine 5.0 nM, 150 min at 37° C. Here is the method:
Brain membrane preparation and binding assays for the σ1-receptor were performed as described (DeHaven-Hudkins, D. L., L. C. Fleissner, and F. Y. Ford-Rice, 1992, Characterization of the binding of [^3H](+)pentazocine to a recognition sites in guinea pig brain, Eur. J. Pharmacol. 227, 371-378) with some modifications. Guinea pig brains were homogenized in 10 vols. (w/v) of Tris-HCl 50 mM 0.32 M sucrose, pH 7.4, with a Kinematica Polytron PT 3000 at 15000 r.p.m. for 30 s. The homogenate was centrifuged at 1000 g for 10 min at 4° C. and the supernatants collected and centrifuged again at 48000 g for 15 min at 4° C. The pellet was resuspended in 10 volumes of Tris-HCl buffer (50 mM, pH 7.4), incubated at 37° C. for 30 min, and centrifuged at 48000 g for 20 min at 4° C. Following this, the pellet was re-suspended in fresh Tris-HCl buffer (50 mM, pH 7.4) and stored on ice until use.
The radioligand used was [^3H]-(+)-pentazocine at 5.0 nM and the final volume was 200 μl. The incubation was initiated with the addition of 100 μl of membrane at a final tissue concentration of approximately 5 mg tissue net weight/mL and the incubation time was 150 m. at 37° C. After incubation, the membranes were collected onto pretreated glass fiber filterplate (MultiScreen-FC, Millipore), with polyethylenimine 0.1%. The filters were washed two times with 200 μl of washing buffer (50 mM Tris Cl, pH=7.4) and then 25 μl of Ecoscint H liquid scintillation cocktail were added. Microplates were allowed to set for several hours and then quantified by liquid scintillation spectrophotometry (1450 Microbeta, Wallac). Nonspecific binding was determined with 1 μM haloperidol.
Compound `c1ccc(-c2nn3cc(COCCN4CCCCCC4)nc3s2)cc1` [Compound 4, 6-((2-(azepan-1-yl)ethoxy)methyl)-2-phenylimidazo[2,1-b][1,3,4]thiadiazole maleate] gave a Ki of 168 nM. This counts as sub-micromolar.
With `c1ccc(-c2cn3cc(CN4CCCCCC4)nc3s2)cc1` [Compound 6, 6-(azepan-1-ylmethyl)-2-phenylimidazo[2,1-b]thiazole maleate] the figure was 16 nM; with `CN1CCN(Cc2cn3cc(-c4ccccc4)sc3n2)CC1` [Compound 7, 6-((4-methylpiperazin-1-yl)methyl)-2-phenylimidazo[2,1-b]thiazole maleate], 56 nM; with `c1ccc(-c2cn3cc(COCCN4CCCCCC4)nc3s2)cc1` [Compound 9, 6-((2-(azepan-1-yl)ethoxy)methyl)-2-phenylimidazo[2,1-b]thiazole maleate], 40 nM.
With `c1ccc(-c2cn3cc(COCCN4CCCC4)nc3s2)cc1` [Compound 10, 2-phenyl-6-((2-(pyrrolidin-1-yl)ethoxy)methyl)imidazo[2,1-b]thiazole maleate] the figure was 190 nM; with `CN1CCN(Cc2cn3nc(-c4ccccc4)sc3n2)CC1` [Compound 11, 6-((4-methylpiperazin-1-yl)methyl)-2-phenylimidazo[2,1-b][1,3,4]thiadiazole maleate], 260 nM; with `c1ccc(-c2cn3cc(CN4CCCCCC4)sc3n2)cc1` [Compound 12, 2-(azepan-1-ylmethyl)-6-phenylimidazo[2,1-b]thiazole maleate], 100 nM.
`CN1CCN(Cc2cn3cc(-c4ccc(F)cc4)sc3n2)CC1` [Compound 13, 2-(4-fluorophenyl)-6-((4-methylpiperazin-1-yl)methyl)imidazo[2,1-b]thiazole maleate] gave a Ki of 210 nM.
